Key:
lung tissue glycocalyx = assay: Cell surface glycocalyx in lung tissue of LPS-induced septic mice (WGA-FITC, lanthanum nitrate TEM); format: in vivo, mouse
Protocol: (§1) Lungs were harvested from LPS‐induced and CLP‐induced sepsis model mice, and frozen sections were prepared. HUVECs and RAW264.7 macrophages were incubated with CV122 for 3 h, and TNF‐α (20 ng mL^−1) and LPS (5 µg mL^−1) were used to stimulate cells for 1 h. Lung tissue, HUVECs, and RAW264.7 macrophages were fixed with 4% paraformaldehyde for 10 min before permeabilization with 0.5% Triton X‐100 for 10 min. The membrane was sealed with 4% skimmed milk powder and incubated at room temperature for 50 min. Primary antibodies were rabbit anti‐heparanase polyclonal antibodies overnight at 4 °C. The diluent of the secondary antibody FITC‐WGA‐lectin was kept at room temperature and protected from light for 1 h. Nuclei were stained with DAPI. After 120 s, images were acquired with a confocal microscope (LSM 800, Zeiss, Germany).
The endothelial glycocalyx was detected by electron microscopy. Mice were dissected and a needle was inserted into the left ventricle of the heart and perfused with lanthanum aldehyde, a solution consisting of 2% glutaraldehyde, 2% sucrose, 0.1 M sodium […] buffer (pH 7.3), and 2% lanthanum nitrate. Lanthanum was a trivalent cation that binds polysaccharide‐protein complexes with negatively charged glycoprotein parts.^[ [46] ^] The organs were cut into 1 mm^3 pieces and then the samples were fixed in lanthanide aldehyde fixative. […]

CLP-induced septic mice = conditions: mouse, in vivo
ICAM-1 and VCAM-1 = ICAM-1 and VCAM-1 on TNF-α-stimulated HUVECs by flow cytometry; format: cell-based, human; conditions: CV122 50 µM 3 h, TNF-α 20 ng mL−1 1 h
Protocol: (§2) Each group of mice was euthanized 24 h after LPS injection, spleens were harvested, red blood cells were lysed to detect splenocyte apoptosis, and the ratio of CD3^+CD4^+ T cells, CD3^+CD8^+ T cells, CD3^−CD19^+ B cells in spleen cells and lymph nodes quantified. Antibodies were: FITC‐Annexin V and PI; APC‐CD3, FITC‐CD4, PE‐CD8a, and PE‐CD19. Each group of mice was euthanized 12 h after LPS injection, Lung, kidney, and spleens were harvested, red blood cells were lysed to detect the ratio of macrophages in multiple organs, Antibodies were: FITC anti‐mouse F4/80; APC anti‐mouse CD86. Flow cytometry was used to quantify the adhesion molecules ICAM‐1 and VCAM‐1 on the surface of RAW264.7 cells and HUVECs. CV122 (50 µM) was incubated with the cells for 3 h, LPS (5 µg mL^−1) and TNF‐α (20 ng mL^−1) were used to stimulate the cells for 1 h, and the cells were collected. FITC anti‐mouse CD54 antibody and AF647 anti‐mouse CD106 antibody were incubated for 30 min at room temperature in the dark, PBS was added at 1000 rpm, and the cells were centrifuged for 7 min. A 200‐mesh copper mesh was used to filter the cells into a flow cytometer, and a flow cytometer (BD Biosciences) was used for detection.

RAW264.7 macrophages = assay: Cell survival assay (CCK-8) in RAW264.7 macrophages; conditions: 50 to 200 µM
HPA = HPA expression in TNF-α-stimulated HUVECs (immunofluorescence, western blotting); format: cell-based, human; conditions: CV122 50 µM 3 h, then TNF-α 20 ng mL−1 1 h
Protocol: as §1
CV122 (50 µM) was incubated with HUVECs and RAW264.7 cells for 3 h, and LPS (5 µg mL^−1) and TNF‐α (20 ng mL^−1) were incubated for 1 h. Total protein was extracted with RIPA tissue/cell lysate solution. Lung tissues were collected and homogenized in cold RIPA buffer to obtain proteins. The BCA method was used to quantify protein. After full denaturing, proteins were separated by 10% SDS‐PAGE and transferred to PVDF membrane. […] Blots were developed with a chemiluminescent HRP substrate, and the protein bands were detected with a chemiluminescence imager (MiniChemi610).

TNF-α, IL-6, IL-1β = assay: Cytokine ELISA in serum and organs of LPS-induced septic mice; format: in vivo, mouse
Protocol: For LPS‐induced sepsis model experiments, twenty male C57BL/6J mice were randomly divided into four groups (n = 5 in each group). Mice in group 1 were injected with 0.9% NaCl, while mice in groups 2–4 were injected intraperitoneally with LPS (20 mg kg^−1). After 30 min, mice in group 3 were injected with 40 mg kg^−1 CV122 and mice in group 4 were injected with 40 mg kg^−1 Suramin. After 3 h, blood was taken and the lungs, liver, spleen, kidney heart, and brain were taken. For CLP experiments, the mice were euthanized 24 h after the establishment of the sepsis model. Blood samples were collected from the eyeballs of mice, the lungs were taken. These organs were ground at 0.1 g mL^−1 in PBS, centrifuged and the supernatant collected. Serum and organ tissue supernatants were used to detect cytokine levels using the mouse TNF‐α, IL‐6, IL‐1β ELISA MAXTM Deluxe Set.

[1] = tested on: M1 macrophages (F4/80+CD86+); assay: Flow cytometry of M1 macrophages in organs of LPS-induced septic mice; format: in vivo, mouse; conditions: 12 h after LPS 40 mg/kg i.p.
Protocol: as §2
Figure S6. M1 macrophages in multiple organs of LPS-induced septic mice. […] All results are expressed as mean ± SD (n = 3), *p < 0.05,**p < 0.01, ***p < 0.001, ****p < 0.0001; ns, not significant. […]

## COC1OC(COS(=O)(=O)O)C(OC2OC(C(=O)O)C(OC3OC(COS(=O)(=O)O)C(OC4OC(C(=O)O)C(OC5OC(COS(=O)(=O)O)C(O)C(O)C5NS(=O)(=O)O)C(OS(=O)(=O)O)C4O)C(OS(=O)(=O)O)C3NS(=O)(=O)O)C(O)C2OS(=O)(=O)O)C(O)C1NS(=O)(=O)O (stereo not shown) [CV122]
Lung tissue glycocalyx
  cell surface glycocalyx in lung tissue by WGA-FITC: integrity of the glycocalyx was rescued
  lanthanum nitrate staining of lung vascular endothelial glycocalyx (TEM): significantly restored lanthanum nitrate staining
CLP-induced septic mice
  HPA levels in the lungs: significantly reduced the HPA levels in the lungs
  TNF-α, IL-6 and IL-1β in serum and lungs: reduced the level
  body weight course: gradually normalized the septic mice
  cell surface glycocalyx in lungs (WGA): protected cell surface glycocalyx
  lung pathological damage (HE): significantly rescued
CLP-induced septic mice; sc
  survival rate: 80%
ICAM-1 and VCAM-1
  ICAM-1 and VCAM-1 expression: reversed after CV122 treatment
RAW264.7 macrophages
  effect on survival of RAW264.7 macrophages: no significant inhibitory effect
HPA
  HPA expression in HUVECs: significantly inhibited HPA expression in HUVECs
TNF-α, IL-6, IL-1β; 40 mg kg−1, 30 min after LPS 20 mg kg−1 i.p., 3 h after LPS, vs LPS group
  TNF-α, IL-6 and IL-1β levels in serum and lungs: significantly suppressed
TNF-α, IL-6, IL-1β; 40 mg kg−1, 3 h after LPS
  TNF-α, IL-6 and IL-1β in tissue extracts of brains, hearts, livers, kidneys and spleens: significantly inhibited the secretion of proinflammatory cytokines in these organs to a greater extent than Suramin
TNF-α, IL-6, IL-1β; candidate screening in LPS-induced septic mouse model (Figure 1C,D)
  TNF-α levels in serum: significantly decreasing
[1]
  percentage of M1 macrophages in kidneys and spleen: significantly inhibited the percentage of M1 macrophages
[1]; **p < 0.01
  percentage of M1 macrophages (F4/80+CD86+) in the lung: significantly reduced by CV122

Source: paper PMC11304236, “A Novel Drug Candidate for Sepsis Targeting Heparanase by Inhibiting Cytokine Storm” (Advanced Science, 2024)
